Measured values published in patent publication US12624044B2, “SMARCA degraders and uses thereof” (Kymera Therapeutics, Inc., priority 2019, dated 2026).

Columns and labels:
Assay type in all cases: cell-based
SMARCA2 [1] = target: T1, SMARCA2 (Homo sapiens, UniProt P51531); experiment: MSD SMARCA2 degradation in A549 cell line; conditions: 24 h; for Dmax: A549, A549 cells; for DC50: A549 cells, read-out: SMARCA2 MSD A549 degradation 24 h: Average external-Abs DC50
How it was run: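 A549 cells treated 24 h with compound at final 0.152-1000 nM (3-fold series, DMSO control). Lysates analyzed by MSD immunoassay using anti-SMARCA2/BRM detection and SULFO-TAG secondary antibodies; maximal degradation (Dmax %) reported as letter bins.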

SMARCA2 [2] = target: T1, SMARCA2; experiment: SMARCA2 Western blot MV4-11 degradation; conditions: 24 h; for DC50: MV4-11 cells, read-out: SMARCA2 WB MV411 degradation 24 h: Average external-Abs DC50; for Dmax: MV4-11, MV4-11 cells, read-out: SMARCA2 WB MV411 degradation 24 h: Average Dmax %
Method: Cells were seeded into 6-well plates (MV4-11: 4×10^6 cells/well/1 ml) and 1 ml of 2× compound solution was added into the well to make the final concentration and the plates were mixed well and incubated for 24 hours (No cytotoxicity was observed). The cell were collected with media and spun at 3000 rpm for 5 minutes. The supernatant was aspirated and the well and the cells were washed with cold PBS once and combined for centrifugation again; the supernatant aspirated again. 200 ul pre-chilled RIPAlysis buffer (Boston BioProducts BP-115D) with protease/phosphatase inhibitor (Roche 05892791001/Roche 04906837001) was directly added into the tube to lyze the cells for 20 minutes on ice. The cell lysate were collected into EP tubes and spun at 13000 rpm for 20 minutes and 72 ul supernatant was transferred to a fresh EP tube containing 18 ul of 5× loading buffer (Beyotime Bio P0015) to make the loading samples. The samples were heated to 100° C. for 10 minutes and cooled to RT and microcentrifuged. 20 ul of samples were loaded onto SDS-PAGE gel (Novex, WG1402BOX) and the gel was run at 80 V for 20 minutes and 120 V for 1.5 hours. The samples were electrotransfer to a NC membrane using wet-transfer method with 250 mA for 2.5 hours. The membrane was blocked with LICOR blocking buffer (LI-COR, 927-50000) for 1 hour. The membrane was washed three times with TBST (CST #9997S), 5 minutes each. Incubation was performed with primary antibody prepared in blocking buffer with 0.1% Tween-20 (Solarbio, P8220) at 4° C. overnight (Anti-SMARCA2/BRM antibody (ab15597) 1:500; Anti-BRG1 antibody [EPR3912] (ab108318) 1:1000; Rabbit anti-Baf180 antibody [EPR15860] (Abcam, ab196022) 1:1000; mouse anti-beta-Actin (8H10D10) (CST #3700) 1:10000). The membrane was washed three times with TBST, 5 minutes each. Incubation with secondary antibody was performed for 1 hour at RT (anti-rabbit IgG (Licor, 926-32211) 1:5000; anti-mouse IgG (LI-COR, 926-68070) 1:5000). The membrane was washed three times with TBST, 5 minutes each and lastly the LiCOR was read.
The letter codes for the percentage of SMARCA degradation after 24 hours (Dmax %) include: A (>90% degradation), B (>70-90% degradation), C (50-70% degradation), and D (<50% degradation).

SMARCA4 = target: T2, SMARCA4 (Homo sapiens, UniProt P51532); experiment: SMARCA4 Western blot MV4-11 degradation; conditions: 24 h; for Dmax: MV4-11, MV4-11 cells, read-out: SMARCA4 WB MV411 degradation 24 h: Average Dmax %; for DC50: MV4-11 cells, read-out: SMARCA4 WB MV411 degradation 24 h: Average external-Abs DC50
T2 construct: SMARCA2 and SMARCA4 protein degradation in MV4-11 cells; endogenous in cells; host or cells: MV4-11
T2 sequence (P51532 whole entry): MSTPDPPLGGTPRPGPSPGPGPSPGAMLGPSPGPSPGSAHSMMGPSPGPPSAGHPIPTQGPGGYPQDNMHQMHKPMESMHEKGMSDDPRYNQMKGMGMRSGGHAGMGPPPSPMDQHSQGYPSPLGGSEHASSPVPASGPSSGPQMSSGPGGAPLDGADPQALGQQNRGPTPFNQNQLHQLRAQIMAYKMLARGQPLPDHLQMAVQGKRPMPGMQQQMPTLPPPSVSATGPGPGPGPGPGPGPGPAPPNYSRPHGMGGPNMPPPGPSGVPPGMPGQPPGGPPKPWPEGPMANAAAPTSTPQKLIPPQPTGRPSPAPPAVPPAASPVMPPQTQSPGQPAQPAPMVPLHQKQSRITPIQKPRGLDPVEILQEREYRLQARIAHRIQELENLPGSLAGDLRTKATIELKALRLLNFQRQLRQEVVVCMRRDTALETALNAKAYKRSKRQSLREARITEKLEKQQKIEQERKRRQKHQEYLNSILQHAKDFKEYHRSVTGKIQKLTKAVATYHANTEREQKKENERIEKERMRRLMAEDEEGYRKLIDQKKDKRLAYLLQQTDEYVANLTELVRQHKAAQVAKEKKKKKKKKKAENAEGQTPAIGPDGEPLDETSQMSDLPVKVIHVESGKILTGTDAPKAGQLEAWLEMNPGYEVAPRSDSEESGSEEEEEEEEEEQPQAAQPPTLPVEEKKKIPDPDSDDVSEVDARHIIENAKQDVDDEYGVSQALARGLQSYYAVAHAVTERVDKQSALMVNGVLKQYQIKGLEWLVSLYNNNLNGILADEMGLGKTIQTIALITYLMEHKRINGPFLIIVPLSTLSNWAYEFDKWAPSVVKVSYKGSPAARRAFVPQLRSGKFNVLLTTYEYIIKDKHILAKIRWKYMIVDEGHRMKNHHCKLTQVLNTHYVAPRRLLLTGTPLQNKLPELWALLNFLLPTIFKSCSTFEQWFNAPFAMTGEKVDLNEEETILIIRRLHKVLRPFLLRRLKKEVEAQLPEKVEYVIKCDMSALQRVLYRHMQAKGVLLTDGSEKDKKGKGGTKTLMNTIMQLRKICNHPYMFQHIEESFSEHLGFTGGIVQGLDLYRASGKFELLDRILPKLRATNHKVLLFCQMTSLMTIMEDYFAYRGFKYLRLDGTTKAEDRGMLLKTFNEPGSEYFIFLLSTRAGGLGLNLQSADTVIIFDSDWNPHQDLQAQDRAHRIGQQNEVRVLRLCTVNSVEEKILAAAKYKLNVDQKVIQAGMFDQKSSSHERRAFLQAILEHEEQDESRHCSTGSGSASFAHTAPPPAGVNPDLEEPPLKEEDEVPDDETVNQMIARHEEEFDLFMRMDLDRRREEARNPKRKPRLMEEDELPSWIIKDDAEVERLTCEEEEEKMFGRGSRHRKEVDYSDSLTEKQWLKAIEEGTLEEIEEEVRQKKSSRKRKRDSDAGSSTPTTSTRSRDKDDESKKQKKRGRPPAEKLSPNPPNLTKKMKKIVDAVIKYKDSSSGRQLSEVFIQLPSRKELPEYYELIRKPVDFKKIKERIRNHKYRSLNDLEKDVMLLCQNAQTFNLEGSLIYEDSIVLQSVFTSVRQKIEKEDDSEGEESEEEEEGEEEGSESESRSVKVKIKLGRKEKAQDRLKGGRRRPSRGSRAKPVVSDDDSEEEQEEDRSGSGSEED
How it was run: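 MV4-11 cells treated with compound for 24 h, lysed in RIPA with protease/phosphatase inhibitors, and SMARCA2 and SMARCA4 (BRG1) levels assessed by Western blot with β-actin loading control and LI-COR fluorescent read-out. Maximal degradation (Dmax %) after 24 h binned into letter codes.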

T1 sequence (P51531 whole entry): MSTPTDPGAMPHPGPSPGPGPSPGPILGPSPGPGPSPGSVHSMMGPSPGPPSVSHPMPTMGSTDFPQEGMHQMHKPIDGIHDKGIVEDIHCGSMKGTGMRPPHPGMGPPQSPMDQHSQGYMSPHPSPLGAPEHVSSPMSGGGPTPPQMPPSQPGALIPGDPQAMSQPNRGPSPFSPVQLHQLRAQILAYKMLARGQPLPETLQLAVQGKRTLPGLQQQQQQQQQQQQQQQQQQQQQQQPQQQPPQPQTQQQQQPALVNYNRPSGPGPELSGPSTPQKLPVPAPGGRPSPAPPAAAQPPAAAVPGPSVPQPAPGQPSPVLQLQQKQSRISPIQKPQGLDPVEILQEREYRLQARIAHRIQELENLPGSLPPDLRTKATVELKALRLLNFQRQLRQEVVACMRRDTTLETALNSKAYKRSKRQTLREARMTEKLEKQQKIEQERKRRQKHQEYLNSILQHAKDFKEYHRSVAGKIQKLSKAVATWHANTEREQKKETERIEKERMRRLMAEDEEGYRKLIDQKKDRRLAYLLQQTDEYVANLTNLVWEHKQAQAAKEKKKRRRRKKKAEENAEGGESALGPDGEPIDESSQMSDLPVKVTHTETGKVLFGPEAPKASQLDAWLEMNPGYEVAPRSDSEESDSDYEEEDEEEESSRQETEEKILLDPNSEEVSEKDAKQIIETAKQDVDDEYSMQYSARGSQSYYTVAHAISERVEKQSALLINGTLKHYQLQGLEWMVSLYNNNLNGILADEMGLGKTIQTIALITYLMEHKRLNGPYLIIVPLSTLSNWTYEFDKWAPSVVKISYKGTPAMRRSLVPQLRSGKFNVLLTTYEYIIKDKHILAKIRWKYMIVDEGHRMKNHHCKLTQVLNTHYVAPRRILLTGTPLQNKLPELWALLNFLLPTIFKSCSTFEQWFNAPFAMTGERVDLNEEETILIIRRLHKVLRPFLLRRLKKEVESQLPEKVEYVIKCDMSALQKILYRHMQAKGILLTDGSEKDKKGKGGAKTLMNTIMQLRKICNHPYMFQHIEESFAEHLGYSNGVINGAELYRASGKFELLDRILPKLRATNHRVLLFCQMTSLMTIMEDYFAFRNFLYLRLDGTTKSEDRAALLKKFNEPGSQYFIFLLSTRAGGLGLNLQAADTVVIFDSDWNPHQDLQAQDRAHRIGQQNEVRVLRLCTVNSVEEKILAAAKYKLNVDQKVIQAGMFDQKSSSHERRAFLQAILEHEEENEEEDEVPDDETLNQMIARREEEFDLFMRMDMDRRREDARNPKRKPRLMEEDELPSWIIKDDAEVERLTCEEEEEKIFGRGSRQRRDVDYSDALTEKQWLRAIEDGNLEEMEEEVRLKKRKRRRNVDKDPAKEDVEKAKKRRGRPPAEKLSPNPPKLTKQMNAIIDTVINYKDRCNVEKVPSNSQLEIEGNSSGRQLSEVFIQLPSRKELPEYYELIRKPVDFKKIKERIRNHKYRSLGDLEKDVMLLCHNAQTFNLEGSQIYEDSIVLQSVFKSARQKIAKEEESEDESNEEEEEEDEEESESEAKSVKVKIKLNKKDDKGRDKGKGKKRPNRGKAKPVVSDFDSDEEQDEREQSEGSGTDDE

SMILES	Dmax (SMARCA2 [1]) [%]	DC50 (SMARCA2 [1]) [nM]	DC50 (SMARCA2 [2]) [nM]	Dmax (SMARCA4) [%]	DC50 (SMARCA4) [nM]	Dmax (SMARCA2 [2]) [%]
Cn1c(=O)n(C2CCC(=O)NC2=O)c2ccc([C@H]3CC[C@H](N4CCC(c5cnc(N6C7CCC6CN(c6cc(-c8ccccc8O)nnc6N)C7)nc5)CC4)CC3)cc21 (some centres unmarked) [I-291]	> 90	< 100	< 100	> 90	< 100	–
Cn1c(=O)n(C2CCC(=O)NC2=O)c2cccc(C3CCC(N4CCC(n5cc(-c6cc(-c7ccccc7O)nnc6N)cn5)CC4)CC3)c21 (centres unmarked) [I-321]	> 90	< 100	< 100	> 90	< 100	> 90
Cc1ncsc1-c1ccc(CNC(=O)[C@@H]2C[C@@H](O)CN2C(=O)[C@@H](NC(=O)C2CCC(CN3CCC(n4cc(-c5cc(-c6ccccc6O)nnc5N)cn4)CC3)CC2)C(C)(C)C)cc1 (some centres unmarked) [I-327]	> 90	100 to 500	< 100	< 50	> 1000	> 90
Cc1ncsc1-c1ccc(CNC(=O)[C@@H]2C[C@@H](O)CN2C(=O)[C@@H](NC(=O)[C@H]2C[C@@H](N3CCC(c4cnc(N5C6CCC5CN(c5cc(-c7ccccc7O)nnc5N)C6)nc4)CC3)C2)C(C)(C)C)cc1 [I-349]	> 90	100 to 500	< 100	< 50	501 to 1000	70 to 90
Cc1ncsc1-c1ccc(CNC(=O)[C@@H]2C[C@@H](O)CN2C(=O)[C@@H](NC(=O)CN2CCN(C3CCC(c4cnc(N5C6CCC5CN(c5cc(-c7ccccc7O)nnc5N)C6)nc4)CC3)CC2)C(C)(C)C)cc1 (stereo partly drawn) [I-354, (2S,4R)-1-((2S)-2-(2-(4-(4-(2-(3-(3-amino-6-(2-hydroxyphenyl)pyridazin-4-yl)-3,8-diazabicyclo[3.2.1]octan-8-yl)pyrimidin-5-yl)cyclohexyl)piperazin-1-yl)acetamido)-3,3-dimethylbutanoyl)-4-hydroxy-N-(4-(4-methylthiazol-5-yl)benzyl)pyrrolidine-2-carboxamide]	> 90	< 100	< 100	> 90	< 100	> 90
Cc1ncsc1-c1ccc(CNC(=O)[C@@H]2C[C@@H](O)CN2C(=O)[C@@H](NC(=O)[C@H]2CC[C@H](Cc3cnc(N4C5CCC4CN(c4cc(-c6ccccc6O)nnc4N)C5)nc3)CC2)C(C)(C)C)cc1 [I-366, (2S,4R)-1-((2S)-2-((1r,4S)-4-((2-(3-(3-amino-6-(2-hydroxyphenyl)pyridazin-4-yl)-3,8-diazabicyclo[3.2.1]octan-8-yl)pyrimidin-5-yl)methyl)cyclohexane-1-carboxamido)-3,3-dimethylbutanoyl)-4-hydroxy-N-(4-(4-methylthiazol-5-yl)benzyl) pyrrolidine-2-carboxamide]	> 90	< 100	< 100	> 90	< 100	> 90
Cc1ncsc1-c1ccc(CNC(=O)[C@@H]2C[C@@H](O)CN2C(=O)[C@@H](NC(=O)[C@H]2CC3(C2)C[C@H](c2cnc(N4C5CCC4CN(c4cc(-c6ccccc6O)nnc4N)C5)nc2)C3)C(C)(C)C)cc1 (some centres unmarked) [I-368]	> 90	< 100	< 100	> 90	< 100	> 90
Cc1ncsc1-c1ccc(CNC(=O)[C@@H]2C[C@@H](O)CN2C(=O)[C@@H](NC(=O)[C@H]2C[C@@]3(C2)C[C@H](c2cnc(N4C5CCC4CN(c4cc(-c6ccccc6O)nnc4N)C5)nc2)C3)C(C)(C)C)cc1 (some centres unmarked) [I-369]	–	< 100	< 100	–	< 100	–
Cc1ncsc1-c1ccc(CNC(=O)[C@@H]2C[C@@H](O)CN2C(=O)[C@@H](NC(=O)[C@H]2CC[C@H](CN3CCC(c4cnc(N5C6CCC5CN(c5cc(-c7ccccc7O)nnc5N)C6)nc4)CC3)CC2)C(C)(C)C)cc1 [I-375]	> 90	100 to 500	< 100	50 to 70	501 to 1000	> 90
Cc1ncsc1-c1ccc(CNC(=O)[C@@H]2C[C@@H](O)CN2C(=O)[C@@H](NC(=O)[C@H]2CC[C@H](CCCCCN3CCC(Cn4cc(-c5cc(-c6ccccc6O)nnc5N)cn4)CC3)CC2)C(C)(C)C)cc1 [I-378]	> 90	100 to 500	< 100	> 90	< 100	> 90
Cc1ncsc1-c1ccc(CNC(=O)[C@@H]2C[C@@H](O)CN2C(=O)[C@@H](NC(=O)[C@H]2CC[C@H](CCN3CCC(n4cc(-c5cc(-c6ccccc6O)nnc5N)cn4)CC3)CC2)C(C)(C)C)cc1 [I-399]	> 90	< 100	< 100	50 to 70	100 to 500	> 90
Cc1ncsc1-c1ccc(CNC(=O)[C@@H]2C[C@@H](O)CN2C(=O)[C@@H](NC(=O)[C@H]2CC[C@H](CCCN3CCC(n4cc(-c5cc(-c6ccccc6O)nnc5N)cn4)CC3)CC2)C(C)(C)C)cc1 [I-401]	> 90	100 to 500	< 100	70 to 90	100 to 500	> 90
Cc1ncsc1-c1ccc(CNC(=O)[C@@H]2C[C@@H](O)CN2C(=O)[C@@H](NC(=O)[C@H]2CC[C@H](c3cnc(N4C5CCC4CN(c4cc(-c6ccccc6O)nnc4N)C5)nc3)CC2)C(C)(C)C)c(C(F)(F)F)c1 [I-404]	> 90	100 to 500	< 100	70 to 90	100 to 500	> 90
Cc1ncsc1-c1ccc(CNC(=O)[C@@H]2C[C@@H](O)CN2C(=O)[C@@H](NC(=O)[C@H]2CC[C@H](c3cnc(N4C5CCC4CN(c4cc(-c6ccccc6O)nnc4N)C5)nc3)CC2)C(C)(C)C)c(OC(F)(F)F)c1 [I-405]	> 90	< 100	< 100	> 90	100 to 500	> 90
Cc1ncsc1-c1ccc(CNC(=O)[C@@H]2C[C@@H](O)CN2C(=O)[C@@H](NC(=O)[C@@H]2CC=C(c3cnc(N4C5CCC4CN(c4cc(-c6ccccc6O)nnc4N)C5)nc3)CC2)C(C)(C)C)cc1 [I-406]	> 90	< 100	< 100	70 to 90	< 100	> 90
Cc1ncsc1-c1ccc(CNC(=O)[C@@H]2C[C@@H](O)CN2C(=O)[C@@H](NC(=O)[C@H]2CC=C(c3cnc(N4C5CCC4CN(c4cc(-c6ccccc6O)nnc4N)C5)nc3)CC2)C(C)(C)C)cc1 [I-407]	> 90	100 to 500	< 100	> 90	< 100	> 90
CC(=O)O[C@@H]1C[C@@H](C(=O)NCc2ccc(-c3scnc3C)cc2)N(C(=O)[C@@H](NC(=O)[C@H]2CC[C@H](c3cnc(N4C5CCC4CN(c4cc(-c6ccccc6O)nnc4N)C5)nc3)CC2)C(C)(C)C)C1 [I-408]	> 90	< 100	< 100	> 90	< 100	> 90
Cc1ncsc1-c1ccc(CNC(=O)[C@@H]2C[C@@H](OC(=O)[C@H](C)N)CN2C(=O)[C@@H](NC(=O)[C@H]2CC[C@H](c3cnc(N4C5CCC4CN(c4cc(-c6ccccc6O)nnc4N)C5)nc3)CC2)C(C)(C)C)cc1 [I-409]	> 90	< 100	< 100	> 90	< 100	> 90
